Results reported in patent US20240366589A1, “NHE3-BINDING COMPOUNDS AND METHODS FOR INHIBITING PHOSPHATE TRANSPORT” (Ardelyx, Inc., priority 2013, published 2024).

Assays:
Human NHE3 = target: T1, Human NHE3 (Homo sapiens, UniProt P48764); assay: Cell-based NHE3 activity under prompt conditions (OK cells, BCECF pH recovery), human NHE3; conditions: prompt conditions
T1 construct: expressed in transfected cells; host or cells: Opossum kidney (OK) cells (ATCC), electroporation
T1 sequence (P48764 26-834): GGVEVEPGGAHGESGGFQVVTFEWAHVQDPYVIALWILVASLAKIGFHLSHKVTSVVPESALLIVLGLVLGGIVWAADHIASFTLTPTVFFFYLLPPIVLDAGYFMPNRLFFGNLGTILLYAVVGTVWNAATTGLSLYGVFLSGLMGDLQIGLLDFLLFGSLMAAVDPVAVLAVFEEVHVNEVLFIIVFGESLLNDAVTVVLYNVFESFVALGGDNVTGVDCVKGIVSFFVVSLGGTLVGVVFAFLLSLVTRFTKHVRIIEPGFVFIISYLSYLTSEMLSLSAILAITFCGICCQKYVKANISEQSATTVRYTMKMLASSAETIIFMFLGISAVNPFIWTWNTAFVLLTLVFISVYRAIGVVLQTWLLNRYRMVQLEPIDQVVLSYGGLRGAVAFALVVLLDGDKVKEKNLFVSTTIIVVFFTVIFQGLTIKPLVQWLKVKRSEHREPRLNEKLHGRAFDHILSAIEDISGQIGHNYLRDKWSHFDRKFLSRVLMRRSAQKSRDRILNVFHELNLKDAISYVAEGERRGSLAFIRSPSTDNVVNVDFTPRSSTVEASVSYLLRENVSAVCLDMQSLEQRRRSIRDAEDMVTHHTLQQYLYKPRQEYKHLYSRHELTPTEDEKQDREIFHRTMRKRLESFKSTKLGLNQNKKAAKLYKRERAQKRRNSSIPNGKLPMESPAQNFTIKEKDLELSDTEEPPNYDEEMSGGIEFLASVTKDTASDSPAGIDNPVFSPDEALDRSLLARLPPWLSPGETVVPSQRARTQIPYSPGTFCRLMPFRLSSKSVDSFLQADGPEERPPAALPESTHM
Summary of the method: (§1)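 Cells (OK line, electroporated with rat or human NHE3) are washed in NaCl-HEPES pH 7.4, then dye-loaded 30 min at room temperature with 5 μM BCECF-AM in NH4Cl buffer.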

Rat NHE3 = target: T2, Rat NHE3 (Rattus norvegicus, UniProt P26433); assay: Cell-based NHE3 activity under prompt conditions (OK cells, BCECF pH recovery), rat NHE3; conditions: prompt conditions
T2 construct: expressed in transfected cells; host or cells: Opossum kidney (OK) cells (ATCC), electroporation
Summary of the method: as §1

[1] = system: absorption of sodium from the intestinal lumen; assay: Fecal form score (FFS) 16 h after oral dose in rats; format: in vivo, rat; conditions: oral gavage, 16 h post-dose, scale 1-5
Summary of the method: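 Eight-week-old Sprague-Dawley rats (n=6) dosed by oral gavage with compound or water vehicle between 4 and 5 PM, then housed in metabolic cages with food and water ad libitum. At 16 h, fecal form scored 1 (normal pellet) to 5 (liquid streams) by two observers; group mean reported.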

[2] = system: phosphorus and calcium levels in the urine of rats; assay: Urinary excretion of phosphate and calcium in rats (16 h overnight urine); format: in vivo, rat; conditions: rats, oral gavage, 16 h post-dose
[3] = system: absorption of sodium from the intestinal lumen; assay: Inhibition of intestinal sodium absorption: urinary sodium (uNa) 16 h after single oral dose in rats; format: in vivo, rat; conditions: oral gavage, 16 h post-dose
Summary of the method: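 Eight-week-old Sprague-Dawley rats (n=6) given single oral gavage of compound or water vehicle in the late afternoon, then kept in metabolic cages with chow and water ad libitum. Urine collected over 16 h; sodium quantified by ion chromatography and expressed as % of vehicle mean, compared by one-way ANOVA with Dunnett's test.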

T2 sequence (P26433 29-831): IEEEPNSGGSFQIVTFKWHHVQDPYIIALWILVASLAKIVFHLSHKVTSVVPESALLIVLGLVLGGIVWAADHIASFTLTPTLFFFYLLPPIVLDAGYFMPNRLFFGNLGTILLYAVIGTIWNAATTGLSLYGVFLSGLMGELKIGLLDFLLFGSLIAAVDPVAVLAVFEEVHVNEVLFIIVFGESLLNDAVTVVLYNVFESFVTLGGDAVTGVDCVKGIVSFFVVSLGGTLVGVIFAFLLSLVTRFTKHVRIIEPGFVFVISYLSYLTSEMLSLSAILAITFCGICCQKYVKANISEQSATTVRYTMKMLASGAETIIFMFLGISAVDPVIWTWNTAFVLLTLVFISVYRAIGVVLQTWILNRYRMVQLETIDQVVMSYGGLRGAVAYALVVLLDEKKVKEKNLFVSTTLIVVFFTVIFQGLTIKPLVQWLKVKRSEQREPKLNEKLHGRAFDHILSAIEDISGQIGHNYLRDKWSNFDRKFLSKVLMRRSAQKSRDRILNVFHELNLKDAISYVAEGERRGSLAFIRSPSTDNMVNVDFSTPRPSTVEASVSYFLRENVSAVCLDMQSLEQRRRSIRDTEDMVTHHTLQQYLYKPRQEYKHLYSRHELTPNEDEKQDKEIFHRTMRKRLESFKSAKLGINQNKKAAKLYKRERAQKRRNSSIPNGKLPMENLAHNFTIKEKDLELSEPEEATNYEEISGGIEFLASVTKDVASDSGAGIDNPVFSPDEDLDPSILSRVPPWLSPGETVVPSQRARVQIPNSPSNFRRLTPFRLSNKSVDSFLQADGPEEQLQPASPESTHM

| Compound | Prompt Human NHE3 pIC50 (Human NHE3) | Prompt Rat NHE3 pIC50 (Rat NHE3) | Fecal Form Score average ([1]; dose 1 mg/kg) | Fecal Form Score average ([1]; dose 2 mg/kg) | Fecal Form Score average ([1]; dose 3 mg/kg) | Urine P % of control ([2]; dose 1 mg/kg) [%] | Urine P % of control ([2]; dose 2 mg/kg) [%] | Urine P % of control ([2]; dose 3 mg/kg) [%] | Urine Na % of control ([3]; dose 1 mg/kg) [%] | Urine Na % of control ([3]; dose 2 mg/kg) [%] | Urine Na % of control ([3]; dose 3 mg/kg) [%] | Fecal Form Score average ([1]; dose 10 mg/kg) | Urine P % of control ([2]; dose 10 mg/kg) [%] | Urine Na % of control ([3]; dose 10 mg/kg) [%] |
| --- | --- | --- | --- | --- | --- | --- | --- | --- | --- | --- | --- | --- | --- | --- |
| CN(C)[C@H]1Cc2c(Cl)cc(Cl)cc2[C@@H]1Oc1ccc(S(=O)(=O)NCCOCCOCCNC(=O)COCC(=O)NCCOCCOCCNS(=O)(=O)c2ccc(O[C@H]3c4cc(Cl)cc(Cl)c4C[C@@H]3N(C)C)cc2)cc1 [compound 149] | 8.00 | 8.10 | 1 | 2 | 1 | 122 | 69 | 115 | 54 | 53 | 46 |  |  |  |
| CN(C)[C@H]1Cc2c(Cl)cc(Cl)cc2[C@@H]1Oc1ccc(S(=O)(=O)NCCOCCOCCNC(=O)[C@H](O)[C@@H](O)C(=O)NCCOCCOCCNS(=O)(=O)c2ccc(O[C@H]3c4cc(Cl)cc(Cl)c4C[C@@H]3N(C)C)cc2)cc1 [compound 150] | 8.00 | 8.60 |  |  | 1 |  |  | 74 |  |  | 73 | 1 | 159 | 12 |
| CN(C)[C@H]1Cc2c(Cl)cc(Cl)cc2[C@@H]1Oc1ccc(S(=O)(=O)NCCOCCOCCNC(=O)C(C)(C)C(=O)NCCOCCOCCNS(=O)(=O)c2ccc(O[C@H]3c4cc(Cl)cc(Cl)c4C[C@@H]3N(C)C)cc2)cc1 [compound 151] | 7.50 | 8.30 |  |  | 1 |  |  | 52 |  |  | 78 | 2 | 121 | 42 |
| CN(C)[C@H]1Cc2c(Cl)cc(Cl)cc2[C@@H]1Oc1ccc(S(=O)(=O)NCCOCCOCCNC(=O)Nc2ccc(NC(=O)NCCOCCOCCNS(=O)(=O)c3ccc(O[C@H]4c5cc(Cl)cc(Cl)c5C[C@@H]4N(C)C)cc3)cc2)cc1 [compound 152] | 8.70 | <5.00 |  |  |  |  |  |  |  |  |  | 1 | 74 | 26 |
| CN1Cc2c(Cl)cc(Cl)cc2[C@H](c2cccc(S(=O)(=O)NCCOCCOCCNC(=O)CCC(CCC(=O)NCCOCCOCCNS(=O)(=O)c3cccc([C@@H]4CN(C)Cc5c(Cl)cc(Cl)cc54)c3)(CCC(=O)NCCOCCOCCNS(=O)(=O)c3cccc([C@@H]4CN(C)Cc5c(Cl)cc(Cl)cc54)c3)NC(=O)Cn3ccnc3)c2)C1 [compound 154] | 6.80 | 6.80 |  |  | 1 |  |  | 65 |  |  | 112 |  |  |  |
| CN1Cc2c(Cl)cc(Cl)cc2[C@H](c2cccc(S(=O)(=O)NCCOCCOCCNC(=O)NCCCC(CCCNC(=O)NCCOCCOCCNS(=O)(=O)c3cccc([C@@H]4CN(C)Cc5c(Cl)cc(Cl)cc54)c3)(CCCNC(=O)NCCOCCOCCNS(=O)(=O)c3cccc([C@@H]4CN(C)Cc5c(Cl)cc(Cl)cc54)c3)NC(=O)CCC(=O)O)c2)C1 [compound 155] | 7.90 | 7.70 |  |  | 2 |  |  | 44 |  |  | 40 |  |  |  |
| CN1Cc2c(Cl)cc(Cl)cc2[C@H](c2cccc(S(=O)(=O)NCCOCCOCCNC(=O)CCC(CCC(=O)NCCOCCOCCNS(=O)(=O)c3cccc([C@@H]4CN(C)Cc5c(Cl)cc(Cl)cc54)c3)(CCC(=O)NCCOCCOCCNS(=O)(=O)c3cccc([C@@H]4CN(C)Cc5c(Cl)cc(Cl)cc54)c3)NC(=O)Cc3nnn[nH]3)c2)C1 [compound 156] | 7.20 | 6.70 |  |  | 3 |  |  | 67 |  |  | 13 |  |  |  |
| CN1Cc2c(Cl)cc(Cl)cc2[C@H](c2cccc(S(=O)(=O)NCCOCCOCCNC(=O)CCC(CCC(=O)NCCOCCOCCNS(=O)(=O)c3cccc([C@@H]4CN(C)Cc5c(Cl)cc(Cl)cc54)c3)(CCC(=O)NCCOCCOCCNS(=O)(=O)c3cccc([C@@H]4CN(C)Cc5c(Cl)cc(Cl)cc54)c3)NC(=O)NCCS(=O)(=O)O)c2)C1 [compound 157] | 7.77 | 7.70 |  |  | 3 |  |  | 50 |  |  | 26 |  |  |  |
| CN1Cc2c(Cl)cc(Cl)cc2[C@H](c2cccc(S(=O)(=O)NCCOCCOCCNC(=O)CCC(CCC(=O)NCCOCCOCCNS(=O)(=O)c3cccc([C@@H]4CN(C)Cc5c(Cl)cc(Cl)cc54)c3)(CCC(=O)NCCOCCOCCNS(=O)(=O)c3cccc([C@@H]4CN(C)Cc5c(Cl)cc(Cl)cc54)c3)NC(=O)NC(CO)(CO)CO)c2)C1 [compound 158] | 6.90 | <5.00 |  |  | 2 |  |  | 64 |  |  | 32 |  |  |  |
| C[C@@H](O)[C@H](NC(=O)NC(CCC(=O)NCCOCCOCCNS(=O)(=O)c1cccc([C@@H]2CN(C)Cc3c(Cl)cc(Cl)cc32)c1)(CCC(=O)NCCOCCOCCNS(=O)(=O)c1cccc([C@@H]2CN(C)Cc3c(Cl)cc(Cl)cc32)c1)CCC(=O)NCCOCCOCCNS(=O)(=O)c1cccc([C@@H]2CN(C)Cc3c(Cl)cc(Cl)cc32)c1)C(N)=O [compound 159] | 7.30 | 7.20 |  |  | 2 |  |  | 55 |  |  | 27 |  |  |  |
| CN1Cc2c(Cl)cc(Cl)cc2[C@H](c2cccc(S(=O)(=O)NCCOCCOCCNC(=O)NCCCC(CCCNC(=O)NCCOCCOCCNS(=O)(=O)c3cccc([C@@H]4CN(C)Cc5c(Cl)cc(Cl)cc54)c3)(CCCNC(=O)NCCOCCOCCNS(=O)(=O)c3cccc([C@@H]4CN(C)Cc5c(Cl)cc(Cl)cc54)c3)NC(=O)COCC(=O)O)c2)C1 [compound 161] | 7.60 | 9.20 |  |  | 2 |  |  | 60 |  |  | 82 |  |  |  |
| CN1Cc2c(Cl)cc(Cl)cc2[C@H](c2cccc(S(=O)(=O)NCCOCCOCCNC(=O)CCC(CCCNC(=O)NCCOCCOCCNS(=O)(=O)c3cccc([C@@H]4CN(C)Cc5c(Cl)cc(Cl)cc54)c3)(CCC(=O)NCCOCCOCCNS(=O)(=O)c3cccc([C@@H]4CN(C)Cc5c(Cl)cc(Cl)cc54)c3)NC(=O)NCP(=O)(O)O)c2)C1 [compound 162] | 6.60 | 7.30 |  | 2 |  |  | 50 |  |  | 130 |  |  |  |  |
| CN1Cc2c(Cl)cc(Cl)cc2[C@H](c2cccc(S(=O)(=O)NCCOCCOCCNC(=O)CCC(CCC(=O)NCCOCCOCCNS(=O)(=O)c3cccc([C@@H]4CN(C)Cc5c(Cl)cc(Cl)cc54)c3)(CCC(=O)NCCOCCOCCNS(=O)(=O)c3cccc([C@@H]4CN(C)Cc5c(Cl)cc(Cl)cc54)c3)NC(=O)N[C@@H](CO)C(=O)O)c2)C1 [compound 163] | 7.60 | 7.90 |  |  | 2 |  |  | 48 |  |  | 27 |  |  |  |
| CN1Cc2c(Cl)cc(Cl)cc2[C@H](c2cccc(S(=O)(=O)NCCOCCOCCNC(=O)CCC(CCC(=O)NCCOCCOCCNS(=O)(=O)c3cccc([C@@H]4CN(C)Cc5c(Cl)cc(Cl)cc54)c3)(CCC(=O)NCCOCCOCCNS(=O)(=O)c3cccc([C@@H]4CN(C)Cc5c(Cl)cc(Cl)cc54)c3)NC(=O)NCC(=O)O)c2)C1 [compound 164] | 8.13 | 7.53 |  |  | 3 |  |  | 63 |  |  | 18 |  |  |  |
